The values below come from patent US10689354B2, “Aminoazole derivative” (Teijin Pharma Limited, priority 2015, dated 2020).

Assay [1] deals with T1, androgen receptor (AR-LBD) (Rattus norvegicus, UniProt P15207).
T1 construct: 5 μL of 2×AR-LBD/Fluoromone AL Red Complex contained in the kit; purchased Invitrogen
T1 sequence (P15207 651-882 limits assumed): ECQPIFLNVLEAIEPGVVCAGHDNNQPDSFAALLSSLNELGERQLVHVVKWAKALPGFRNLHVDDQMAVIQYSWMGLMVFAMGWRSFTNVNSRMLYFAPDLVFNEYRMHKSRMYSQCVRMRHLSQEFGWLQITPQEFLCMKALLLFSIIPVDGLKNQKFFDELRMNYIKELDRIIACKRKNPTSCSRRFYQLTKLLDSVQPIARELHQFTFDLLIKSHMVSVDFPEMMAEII
Briefly: Evaluation of androgen receptor affinity (PolarScreen Androgen Receptor Competitor Assay Kit, Red; fluorescence polarization). As to conditions: 22° C. for 5 hours, relative to binding rate of 1 μM DHT, read-out: AR affinity (pEC50) (converted). The method in brief: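 FP competition: compound + AR-LBD/Fluoromone AL Red tracer complex, 22° C, 5 h. Reference 1 μM DHT binding rate; pEC50 by 4-parameter fit.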
On the technique in general: In fluorescence polarisation assays a small probe gives low polarisation when free and higher when bound to something large.

For another assay, the target named is T2, human androgen receptor (Homo sapiens, UniProt P10275).
T2 construct: expressed in transfected cells; host or cells: HEK293
T2 sequence (P10275 1-920): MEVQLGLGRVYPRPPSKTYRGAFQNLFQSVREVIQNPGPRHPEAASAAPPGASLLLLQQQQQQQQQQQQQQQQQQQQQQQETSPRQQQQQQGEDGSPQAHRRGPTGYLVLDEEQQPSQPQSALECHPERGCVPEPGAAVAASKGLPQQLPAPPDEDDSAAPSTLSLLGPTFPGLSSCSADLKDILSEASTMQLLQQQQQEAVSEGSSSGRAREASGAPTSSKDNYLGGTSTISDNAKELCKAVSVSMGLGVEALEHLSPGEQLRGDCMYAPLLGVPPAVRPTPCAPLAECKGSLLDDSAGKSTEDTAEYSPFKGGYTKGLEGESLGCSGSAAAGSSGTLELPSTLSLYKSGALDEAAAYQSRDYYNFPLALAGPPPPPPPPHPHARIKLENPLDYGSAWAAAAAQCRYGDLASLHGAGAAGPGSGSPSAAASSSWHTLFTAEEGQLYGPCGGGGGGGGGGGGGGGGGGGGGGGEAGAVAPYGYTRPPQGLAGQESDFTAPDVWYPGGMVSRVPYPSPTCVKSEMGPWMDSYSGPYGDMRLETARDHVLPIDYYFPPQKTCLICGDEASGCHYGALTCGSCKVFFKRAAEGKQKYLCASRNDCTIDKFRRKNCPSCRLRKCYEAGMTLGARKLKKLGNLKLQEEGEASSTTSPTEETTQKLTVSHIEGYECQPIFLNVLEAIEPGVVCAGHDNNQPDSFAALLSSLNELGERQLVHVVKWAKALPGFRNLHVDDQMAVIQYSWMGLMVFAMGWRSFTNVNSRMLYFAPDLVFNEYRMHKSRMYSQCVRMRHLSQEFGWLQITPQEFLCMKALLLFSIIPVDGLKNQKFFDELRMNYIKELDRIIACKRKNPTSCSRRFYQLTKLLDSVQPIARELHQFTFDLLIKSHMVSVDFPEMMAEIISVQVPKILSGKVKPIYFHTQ
The assay is described as follows: Reporter assay of an androgen receptor responsive sequence (luciferase, transiently transfected HEK293 cells). Format: cell-based. As to conditions: 24 hours incubation, relative to activity of 100 nM DHT, read-out: AR transcriptive activity (pEC50) (converted). Put shortly:
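Agonism scored as pEC50, fitted by 4-parameter curve against the response to 100 nM DHT, from dual-luciferase readout after 24 h compound treatment. Cells were HEK293 co-transfected (3 h) with human AR expression vector, androgen-responsive firefly reporter and Renilla control, in charcoal-stripped serum.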

For the compound `COCCOCCCS(=O)(=O)NC(=O)c1nc(N(Cc2ccc(OC(F)(F)F)cc2)c2ccc(C#N)cc2)sc1C` [Compound 540, 2-[4-cyano-N-[[4-(trifluoromethoxy)phenyl]methyl]anilino]-N-[3-(2-methoxyethoxy)propylsulfonyl]-5-methyl-thiazole-4-carboxamide], the EC50 was 0.316 µM in assay [1] and greater than 10 µM on human androgen receptor.

For `COCCCS(=O)(=O)NC(=O)c1nc(N(Cc2ccc(Br)cn2)c2ccc(C#N)cc2)sc1C` [Example 188, 2-[N-[(5-bromo-2-pyridyl)methyl]-4-cyano-anilino]-N-(3-methoxypropylsulfonyl)-5-methyl-thiazole-4-carboxamide], the EC50 was 0.316 µM in assay [1] and 0.2 µM at human androgen receptor.

Regarding `Cc1sc(N(Cc2ccc(OCC3CCOCC3)cc2)c2ccc(C#N)cc2)nc1C(=O)NS(C)(=O)=O` [Compound 576, 2-[4-cyano-N-[[4-(tetrahydropyran-4-ylmethoxy)phenyl]methyl]anilino]-5-methyl-N-methylsulfonyl-thiazole-4-carboxamide], the EC50 in assay [1] was 0.0631 µM; at human androgen receptor it was 1.26 µM.

For `CCc1oc(N(Cc2ccc(OC(F)F)c(F)c2)c2ccc(C#N)cc2)nc1C(=O)NS(C)(=O)=O` [Compound 654, 2-[4-cyano-N-[[4-(difluoromethoxy)-3-fluoro-phenyl]methyl]anilino]-5-ethyl-N-methylsulfonyl-oxazole-4-carboxamide], the EC50 in assay [1] is 0.0398 µM; at human androgen receptor, 0.631 µM.

For the compound `COCCCS(=O)(=O)NC(=O)c1nc(N(Cc2ncc(Cl)cc2F)c2ccc(C#N)cc2)sc1C` [Example 169, 2-[N-[(5-chloro-3-fluoro-2-pyridyl)methyl]-4-cyano-anilino]-N-(3-methoxypropylsulfonyl)-5-methyl-thiazole-4-carboxamide], the EC50 was 0.2 µM in assay [1] and 0.501 µM on human androgen receptor.

In the case of `Cc1sc(N(Cc2ccc3nccnc3c2)c2ccc(C#N)cc2)nc1C(=O)NS(C)(=O)=O` [Compound 404, 2-[4-cyano-N-(quinoxalin-6-ylmethyl)anilino]-5-methyl-N-methylsulfonyl-thiazole-4-carboxamide], the EC50 in assay [1] is 1 µM; at human androgen receptor it was 3.16 µM.

Consider `CCc1oc(N(Cc2ccccc2OC(F)F)c2ccc(C#N)cc2)nc1C(=O)NS(C)(=O)=O` [Compound 637, 2-[4-cyano-N-[[2-(difluoromethoxy)phenyl]methyl]anilino]-5-ethyl-N-methylsulfonyl-oxazole-4-carboxamide], for which the EC50 in assay [1] was 0.158 µM; at human androgen receptor it was greater than 10 µM.

Regarding `Cc1sc(N(Cc2ccc3c(c2)OCCO3)c2ccc(C#N)cc2)nc1C(=O)NS(C)(=O)=O` [Compound 123, 2-[4-cyano-N-(2,3-dihydro-1,4-benzodioxin-6-ylmethyl)anilino]-5-methyl-N-methylsulfonyl-thiazole-4-carboxamide], the values for the EC50 (in assay [1]; at human androgen receptor) were 0.0501 µM and 0.1 µM, respectively.

Regarding `COCCCS(=O)(=O)NC(=O)c1nc(N(Cc2ccc(OC(F)(F)F)cc2)c2ccc(C#N)cc2)sc1C` [Compound 157, 2-[4-cyano-N-[[4-(trifluoromethoxy)phenyl]methyl]anilino]-N-(3-methoxypropylsulfonyl)-5-methyl-thiazole-4-carboxamide], the EC50 was 0.0316 µM in assay [1] and 0.2 µM at human androgen receptor.

As for `Cc1sc(N(Cc2ccc(OC(F)(F)F)c(Cl)c2)c2ccc(C#N)cc2)nc1C(=O)NS(C)(=O)=O` [Compound 421, 2-[N-[[3-chloro-4-(trifluoromethoxy)phenyl]methyl]-4-cyano-anilino]-5-methyl-N-methylsulfonyl-thiazole-4-carboxamide], the results for the EC50 (in assay [1]; at human androgen receptor) were 0.02 µM and 0.2 µM, respectively.

With `Cc1sc(N(CCc2ccc(C#N)cc2)Cc2ccc(OC(F)(F)F)cc2)nc1C(=O)NS(=O)(=O)C(F)(F)F` [Compound 722, 2-[2-(4-cyanophenyl)ethyl-[[4-(trifluoromethoxy)phenyl]methyl]amino]-5-methyl-N-(trifluoromethylsulfonyl)thiazole-4-carboxamide], the EC50 is 0.251 µM in assay [1] and greater than 10 µM at human androgen receptor.

In the case of `Cc1sc(N(Cc2ccc(Br)cc2C#N)c2ccc(C#N)cc2)nc1C(=O)NS(C)(=O)=O` [Example 182, 2-[N-[(4-bromo-2-cyano-phenyl)methyl]-4-cyano-anilino]-5-methyl-N-methylsulfonyl-thiazole-4-carboxamide], the EC50 in assay [1] was 0.631 µM; on human androgen receptor, greater than 10 µM.

As for `Cc1nc(CN(CCc2ccc(OC(F)(F)F)cc2)c2nc(C(=O)NS(C)(=O)=O)c(C)s2)cs1` [Compound 507, 5-methyl-N-methylsulfonyl-2-[(2-methylthiazol-4-yl)methyl-[2-[4-(trifluoromethoxy)phenyl]ethyl]amino]thiazole-4-carboxamide], the EC50 in assay [1] was 0.0398 µM; at human androgen receptor it was 0.501 µM.

Take `Cc1nc(CN(c2ccc(C#N)cc2)c2nc(C(=O)NS(C)(=O)=O)c(Br)s2)cs1` [Example 281, 5-bromo-2-[4-cyano-N-[(2-methylthiazol-4-yl)methyl]anilino]-N-methylsulfonyl-thiazole-4-carboxamide]: the EC50 is 0.398 µM in assay [1] and 0.631 µM on human androgen receptor.

Take `COCCCS(=O)(=O)NC(=O)c1nc(N(Cc2ccc(Cl)cn2)c2ccc(C#N)cc2)sc1C1CC1` [Example 283, 2-[N-[(5-chloro-2-pyridyl)methyl]-4-cyano-anilino]-5-cyclopropyl-N-(3-methoxypropylsulfonyl)thiazole-4-carboxamide]: the EC50 in assay [1] was 0.2 µM; at human androgen receptor it was greater than 10 µM.

`Cc1oc(N(CCc2ccccc2)c2ccc(C#N)cc2)nc1C(=O)NS(C)(=O)=O` [Compound 625, 2-[4-cyano-N-(2-phenylethyl)anilino]-5-methyl-N-methylsulfonyl-oxazole-4-carboxamide]: the figures for the EC50 (in assay [1]; on human androgen receptor) were 0.251 µM and 3.98 µM, respectively.

In the case of `Cc1sc(N(CCC2CCCCC2)Cc2ccc(OC(F)(F)F)cc2)nc1C(=O)NS(=O)(=O)Cc1cccc(F)c1` [Compound 735, 2-[2-cyclohexylethyl-[[4-(trifluoromethoxy)phenyl]methyl]amino]-N-[(3-fluorophenyl)methylsulfonyl]-5-methyl-thiazole-4-carboxamide], the EC50 in assay [1] is 1 µM; on human androgen receptor, greater than 10 µM.

As for `Cc1sc(N(Cc2ccc(-c3ccccc3F)cc2)c2ccc(C#N)cc2)nc1C(=O)NS(C)(=O)=O` [Compound 590, 2-[4-cyano-N-[[4-(2-fluorophenyl)phenyl]methyl]anilino]-5-methyl-N-methylsulfonyl-thiazole-4-carboxamide], the EC50 is 0.0316 µM in assay [1] and 0.158 µM at human androgen receptor.

Consider `CCC(C)CN(c1ccc(C#N)cc1)c1nc(C(=O)NS(C)(=O)=O)c(C)s1` (centres unmarked) [Compound 89, 2-[4-cyano-N-(2-methylbutyl)anilino]-5-methyl-N-methylsulfonyl-thiazole-4-carboxamide], for which the EC50 in assay [1] was 0.501 µM; at human androgen receptor it was greater than 10 µM.

In the case of `Cc1sc(N(Cc2ccc(Cl)cn2)c2ccc(C#N)cc2)nc1C(=O)NS(C)(=O)=O` [Compound 152, 2-[N-[(5-chloro-2-pyridyl)methyl]-4-cyano-anilino]-5-methyl-N-methylsulfonyl-thiazole-4-carboxamide], the EC50 in assay [1] was 0.2 µM; on human androgen receptor, 0.1 µM.

For the compound `Cc1sc(N(Cc2cccc(-n3ccnc3)c2)c2ccc(C#N)cc2)nc1C(=O)NS(C)(=O)=O` [Example 218, 2-[4-cyano-N-[(3-imidazol-1-ylphenyl)methyl]anilino]-5-methyl-N-methylsulfonyl-thiazole-4-carboxamide], the values for the EC50 (in assay [1]; at human androgen receptor) were 0.251 µM and greater than 10 µM, respectively.

As to `CCc1oc(N(Cc2ccc(Cl)cc2)c2ccc(C#N)cc2)nc1C(=O)NS(C)(=O)=O` [Compound 623, 2-[N-[(4-chlorophenyl)methyl]-4-cyano-anilino]-5-ethyl-N-methylsulfonyl-oxazole-4-carboxamide], the values for the EC50 (in assay [1]; on human androgen receptor) were 0.0316 µM and 0.158 µM, respectively.
